The target of the assay is T1, canine TRPM8 (Canis lupus familiaris, UniProt Q1A7N1).
T1 construct: expressed in transfected cells
As to the kind of experiment: In Vitro Canine TRPM8 Functional Assay (icilin-induced intracellular Ca2+ fluorescence, FLIPR/FDSS). The format is cell-based. The conditions noted are these: HEK293 cells stably expressing canine TRPM8; for inhibition at 0.2 µM: 0.2 μM test compound, icilin challenge; for IC50: icilin challenge (~80% maximal response), eight-point dose-response. On the procedure:
The functional activity of representative compounds of the formula (I) of the present invention were measured by measuring changes in intracellular calcium concentration using a Ca^2+-sensitive fluorescent dye. The changes in fluorescent signal were monitored by a fluorescence plate reader, either a FLIPR™ (Molecular Devices) or FDSS (Hamamatsu).
HEK293 cells stably expressing canine TRPM8 were routinely grown as monolayers in Dulbecco's minimum essential medium supplemented with 10% FBS, 2 mM L-glutamine, 100 units/mL penicillin, 100 ug/mL streptomycin and 400 μg/mL G418. Cells were maintained in 5% CO2 at 37° C. At 24 hrs prior to assay, cells were seeded in black wall, clear-base poly-D-lysine coated 384-well plates (BD Biosciences, NJ, USA) at a density of 5,000 cells per well in culture medium and grown overnight in 5% CO2 at 37° C. On assay day, growth media was removed and cells were loaded with Calcium 3 Dye (Molecular Devices) for 35 min at 37° C., under 5% CO2 and then for 25 min at room temperature and atmosphere. Subsequently, cells were tested for agonist-induced increases in intracellular Ca^2+ levels using FLIPR™ or FDSS. Cells were challenged with compounds of the formula (I) (at varying concentrations) and intracellular Ca^2+ was measured for 5 min prior to the addition of icilin to all wells to achieve a final concentration that produces approximately an 80% maximal response.
Basal FI was subtracted prior to normalizing data to percent of maximal response. Curves were generated using the average of quadruplicate wells for each data point, were analyzed using nonlinear regression of either sigmoidal dose response or sigmoidal dose response (variable slope). Finally, the EC50 and IC50 values were calculated with the best-fit dose curve determined by GraphPad Prism

The inhibition is the drop in the measured response relative to a control, in per cent. Usually IC50 stands for the concentration at which inhibition is half-maximal.

Structures can show the parent of a compound that is named as a salt.

T1 sequence (Q1A7N1 1-1104): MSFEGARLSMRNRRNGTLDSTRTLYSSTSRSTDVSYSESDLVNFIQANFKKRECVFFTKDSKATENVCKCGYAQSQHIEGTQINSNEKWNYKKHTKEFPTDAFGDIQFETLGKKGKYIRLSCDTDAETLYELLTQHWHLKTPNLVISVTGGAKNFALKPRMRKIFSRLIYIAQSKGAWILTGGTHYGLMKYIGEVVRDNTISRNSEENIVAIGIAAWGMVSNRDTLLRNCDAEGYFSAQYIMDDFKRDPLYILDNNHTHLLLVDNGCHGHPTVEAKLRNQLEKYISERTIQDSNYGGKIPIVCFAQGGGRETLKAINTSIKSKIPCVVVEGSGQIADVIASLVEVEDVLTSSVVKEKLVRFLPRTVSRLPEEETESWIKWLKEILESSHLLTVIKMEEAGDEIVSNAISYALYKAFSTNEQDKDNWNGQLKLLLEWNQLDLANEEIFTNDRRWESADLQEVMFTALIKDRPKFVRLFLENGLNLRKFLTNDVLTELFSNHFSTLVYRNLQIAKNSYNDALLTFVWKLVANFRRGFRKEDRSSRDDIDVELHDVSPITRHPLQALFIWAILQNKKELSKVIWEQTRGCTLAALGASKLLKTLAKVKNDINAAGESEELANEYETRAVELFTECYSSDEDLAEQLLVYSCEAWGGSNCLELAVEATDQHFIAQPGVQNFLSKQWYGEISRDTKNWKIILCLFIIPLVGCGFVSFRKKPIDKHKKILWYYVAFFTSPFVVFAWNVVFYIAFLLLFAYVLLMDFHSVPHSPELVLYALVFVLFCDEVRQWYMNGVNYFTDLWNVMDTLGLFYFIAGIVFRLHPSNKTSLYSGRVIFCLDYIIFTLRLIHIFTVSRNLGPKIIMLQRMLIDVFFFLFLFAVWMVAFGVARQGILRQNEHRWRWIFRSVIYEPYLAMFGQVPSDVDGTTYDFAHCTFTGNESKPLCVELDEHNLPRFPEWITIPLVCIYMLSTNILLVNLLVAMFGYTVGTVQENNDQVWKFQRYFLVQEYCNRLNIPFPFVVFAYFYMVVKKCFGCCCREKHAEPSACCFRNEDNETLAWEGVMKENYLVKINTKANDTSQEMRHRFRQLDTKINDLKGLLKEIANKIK

For the molecule `OCc1ccccc1-c1ccc2[nH]c(C=CC3CCCC3)nc2c1` [Compound 28, {2-[2-(2-Cyclopentyl-vinyl)-1H-benzimidazol-5-yl]-phenyl}-methanol], the inhibition at 0.2 µM was determined as 95% and half-maximal inhibition (IC50) was put at 42 nM.
With `Fc1cccc(C(F)(F)F)c1-c1ccc2[nH]c(C=CC3CCC(F)(F)CC3)nc2c1` [Compound 42, 2-[2-(4,4-Difluoro-cyclohexyl)-vinyl]-5-(2-fluoro-6-trifluoromethyl-phenyl)-1H-benzoimidazole hydrochloride salt], the inhibition at 0.2 µM turned out to be 101% and the IC50 is 3 nM.
The corresponding values for `FC1(F)CCC(C=Cc2nc3cc(-c4ccccc4Cl)ccc3[nH]2)CC1` [Compound 38, 5-(2-Chloro-phenyl)-2-[2-(4,4-difluoro-cyclohexyl)-vinyl]-1H-benzoimidazole hydrochloride salt] are 101% and 3.5 nM.
The corresponding values for `FC(F)(F)COc1ccccc1-c1ccc2[nH]c(C=CC3CCCCC3)nc2c1` [Compound 4, 2-(2-Cyclohexyl-vinyl)-5-[2-(2,2,2-trifluoro-ethoxy)-phenyl]-1H-benzimidazole] are 103% and 3 nM.
The corresponding values for `COc1cccc(OC)c1-c1ccc2[nH]c(C=CC3CCCCC3)nc2c1` [Compound 14, 2-(2-Cyclohexyl-vinyl)-5-(2,6-dimethoxy-phenyl)-1H-benzimidazole] are 95% and 2 nM.
With `Fc1ccccc1-c1ccc2[nH]c(C=CC3CCCCC3)nc2c1` [Compound 16, 2-(2-Cyclohexyl-vinyl)-5-(2-fluoro-phenyl)-1H-benzimidazole], the inhibition at 0.2 µM worked out at 102% and the IC50 turned out to be 14 nM.
The like results for `Cc1cccc(C)c1-c1ccc2[nH]c(C=CC3CC=C(F)CC3)nc2c1` (centres unmarked) [Compound 35, 5-(2,6-Dimethyl-phenyl)-2-[2-(4-fluoro-cyclohex-3-enyl)-vinyl]-1H-benzoimidazole hydrochloride salt] were, in that order, 100% and 4 nM.
The like results for `FC1(F)CCC(/C=C/c2nc3cc(-c4ccccc4C(F)(F)F)cc(C(F)(F)F)c3[nH]2)CC1` [Compound 47, 2-[2-(4,4-Difluoro-cyclohexyl)-vinyl]-7-trifluoromethyl-5-(2-trifluoromethyl-phenyl)-1H-benzoimidazole hydrochloride salt] were, in that order, 99% and 6.3 nM.
The like results for `FC1=CCC(C=Cc2nc3cc(-c4ccccc4OC(F)(F)F)ccc3[nH]2)CC1` (centres unmarked) [Compound 32, 2-[2-(4-Fluoro-cyclohex-3-enyl)-vinyl]-5-(2-trifluoromethoxy-phenyl)-1H-benzoimidazole hydrochloride salt] were, in that order, 101% and 5.2 nM.
`FC(F)(F)c1cc(-c2ccc3[nH]c(/C=C/C4CCOCC4)nc3c2)ccn1` [Compound 54, (E)-2-[2-(Tetrahydro-pyran-4-yl)-vinyl]-5-(2-trifluoromethyl-pyridin-4-yl)-1H-benzimidazole hydrochloride]: the inhibition at 0.2 µM worked out at 1%.
With `Fc1ccccc1-c1ccc2[nH]c(C=CC3CCCC3)nc2c1` [Compound 24, 2-(2-Cyclopentyl-vinyl)-5-(2-fluoro-phenyl)-1H-benzimidazole], the inhibition at 0.2 µM worked out at 85% and inhibition was half-maximal at 97 nM (IC50).
As to `FC1(F)CCC(C=Cc2nc3cc(-c4ccccc4OC(F)(F)F)ccc3[nH]2)CC1` [Compound 37, 2-[2-(4,4-Difluoro-cyclohexyl)-vinyl]-5-(2-trifluoromethoxy-phenyl)-1H-benzoimidazole hydrochloride salt], the inhibition at 0.2 µM was 100% and the IC50 amounted to 8 nM.
The like results for `COc1ccc(Cl)c(-c2ccc3[nH]c(C=CC4CCCCC4)nc3c2)c1` [Compound 18, 5-(2-Chloro-5-methoxy-phenyl)-2-(2-cyclohexyl-vinyl)-1H-benzimidazole] were, in that order, 101% and 32 nM.
Consider `Cc1cc(-c2ccccc2C(F)(F)F)cc2nc(/C=C/C3CCC(C)(C)CC3)[nH]c12` [Compound 63, (E)-2-[2-(4,4-Dimethyl-cyclohexyl)-vinyl]-7-methyl-5-(2-trifluoromethyl-phenyl)-1H-benzoimidazole hydrochloride], for which the inhibition at 0.2 µM was 97% and the IC50 is 12 nM.
On to `Oc1cccc(-c2ccc3[nH]c(C=CC4CCCCC4)nc3c2)c1` [Compound 5, 3-[2-(2-Cyclohexyl-vinyl)-1H-benzimidazol-5-yl]-phenol], for which the inhibition at 0.2 µM was 18%.
Regarding `Fc1ccccc1-c1ccc2[nH]c(C=CC3CCC(F)(F)CC3)nc2c1` [Compound 39, 2-[2-(4,4-Difluoro-cyclohexyl)-vinyl]-5-(2-fluoro-phenyl)-1H-benzoimidazole hydrochloride salt], the inhibition at 0.2 µM worked out at 101% and 9 nM corresponded to half-maximal inhibition (IC50).
The like results for `Fc1ccc(F)c(-c2ccc3[nH]c(C=CC4CCCCC4)nc3c2)c1` [Compound 22, 2-(2-Cyclohexyl-vinyl)-5-(2,5-difluoro-phenyl)-1H-benzimidazole] were, in that order, 101% and 31 nM.
For `CC1(c2ccccc2-c2ccc3[nH]c(C=CC4CCCCC4)nc3c2)OCCO1` [Compound 7, 2-(2-Cyclohexyl-vinyl)-5-[2-(2-methyl-[1,3]dioxolan-2-yl)-phenyl]-1H-benzimidazole], the inhibition at 0.2 µM was 103% and half-maximal inhibition (IC50) was put at 34 nM.
The like results for `COc1cccc(F)c1-c1ccc2[nH]c(C=CC3CCCCC3)nc2c1` [Compound 11, 2-(2-Cyclohexyl-vinyl)-5-(2-fluoro-6-methoxy-phenyl)-1H-benzimidazole] were, in that order, 102% and 32 nM.
Take `FC1=CCC(C=Cc2nc3cc(-c4ccccc4C(F)(F)F)cc(C(F)(F)F)c3[nH]2)CC1` (centres unmarked) [Compound 46, 2-[2-(4-Fluoro-cyclohex-3-enyl)-vinyl]-7-trifluoromethyl-5-(2-trifluoromethyl-phenyl)-1H-benzoimidazole hydrochloride salt]: the inhibition at 0.2 µM is 99% and half-maximal inhibition (IC50) was put at 4 nM.
The corresponding values for `CC(=O)c1ccccc1-c1ccc2[nH]c(C=CC3CCCC3)nc2c1` [Compound 29, 1-{2-[2-(2-Cyclopentyl-vinyl)-1H-benzimidazol-5-yl]-phenyl}-ethanone] are 77% and 170 nM.
The like results for `FC(F)(F)c1cccnc1-c1ccc2[nH]c(/C=C/C3CCOCC3)nc2c1` [Compound 62, (E)-2-[2-(Tetrahydro-pyran-4-yl)-vinyl]-5-(3-trifluoromethyl-pyridin-2-yl)-1H-benzoimidazole hydrochloride] were, in that order, 92% and 21 nM.
The like results for `Cc1cc(-c2ccccc2OC(F)(F)F)cc2nc(C=CC3CCCCC3)[nH]c12` [Compound 48, 2-(2-Cyclohexyl-vinyl)-7-methyl-5-(2-trifluoromethoxy-phenyl)-1H-benzoimidazole hydrochloride salt] were, in that order, 99% and 6 nM.
With `COc1cccc(F)c1-c1ccc2[nH]c(C=CC3CC=C(F)CC3)nc2c1` (centres unmarked) [Compound 41, 2-[2-(4-Fluoro-cyclohex-3-enyl)-vinyl]-5-(2-fluoro-6-methoxy-phenyl)-1H-benzoimidazole hydrochloride salt], the inhibition at 0.2 µM was determined as 100% and the IC50 is 6 nM.
The like results for `N#Cc1ccccc1-c1ccc2[nH]c(C=CC3CCCC3)nc2c1` [Compound 27, 2-[2-(2-Cyclopentyl-vinyl)-1H-benzimidazol-5-yl]-benzonitrile] were, in that order, 100% and 47 nM.
The corresponding values for `FC(F)(F)c1ncccc1-c1ccc2[nH]c(/C=C/C3CCCCC3)nc2c1` [Compound 56, (E)-2-(2-Cyclohexyl-vinyl)-5-(2-trifluoromethyl-pyridin-3-yl)-1H-benzimidazole hydrochloride] are 99% and 11 nM.
The corresponding values for `FC(F)(F)Oc1ccccc1-c1ccc2nc(C=CC3CCCC3)[nH]c2c1` [Compound 26, 2-(2-Cyclopentyl-vinyl)-5-(2-trifluoromethoxy-phenyl)-1H-benzimidazole] are 100% and 33 nM.
Turning to `Fc1cccc(F)c1-c1ccc2[nH]c(/C=C/C3CCOCC3)nc2c1` [Compound 61, (E)-5-(2,6-Difluoro-phenyl)-2[2-(tetrahydro-pyran-4-yl)-vinyl]-1H-benzoimidazole hydrochloride], the inhibition at 0.2 µM was 97% and the midpoint of inhibition, the IC50, lay at 32 nM.
The corresponding values for `Fc1ccc(Cl)c(-c2ccc3[nH]c(C=CC4CCCCC4)nc3c2)c1` [Compound 9, 5-(2-Chloro-5-fluoro-phenyl)-2-(2-cyclohexyl-vinyl)-1H-benzimidazole] are 101% and 11 nM.

The values above are taken from patent US8217060B2, “Benzimidazole derivatives useful as TRP M8 receptor modulators” (Janssen Pharmaceutica, NV, priority 2009, dated 2012).
